Results published in patent US7998969B2, “Non-nucleoside reverse transcriptase inhibitors” (Roche Palo Alto LLC, priority 2006, dated 2011).
pIC50: −log10 of the molar value. Where two headings read alike, the source gives them in different places.

Experiments:
[1] = target: HIV-1 reverse transcriptase (HIV-RT enzyme) (Human immunodeficiency virus type 1 group M subtype B, UniProt P03366); assay: HIV-1 Reverse Transcriptase Assay Inhibitor IC50 Determination (RNA-dependent DNA polymerase activity, SPA); type: biochemical
Procedure: HIV-1 Reverse Transcriptase Assay Inhibitor IC50 Determination
RNA-dependent DNA polymerase activity was measured using a biotinylated primer oligonucleotide and tritiated dNTP substrate. Newly synthesized DNA was quantified by capturing the biotinylated primer molecules on streptavidin coated Scintillation Proximity Assay (SPA) beads (Amersham). The sequences of the polymerase assay substrate were: 18 nt DNA primer, 5′-Biotin/GTC CCT GTT CGG GCG CCA-3′; 47 nt RNA template, 5′-GGGUCUCUCUGGUUAGACCACUCUAGCAGUGGCGCCCGAACAGGGAC-3′. The biotinylated DNA primer was obtained from the Integrated DNA Technologies Inc. and the RNA template was synthesized by Dharmacon. The DNA polymerase assay (final volume 50 μl) contained 32 nM biotinylated DNA primer, 64 nM RNA substrate, dGTP, dCTP, dTTP (each at 5 μM), 103 nM [^3H]-dATP (specific activity=[…]), in 45 mM Tris-HCl, pH 8.0, 45 mM NaCl, 2.7 mM Mg(CH3COO)2, 0.045% Triton X-100 w/v, 0.9 mM EDTA. The reactions contained 5 μl of serial compound dilutions in 100% DMSO for IC50 determination and the final concentrations of DMSO were 10%. Reactions were initiated by the addition of […] of the HIV-RT enzyme (final concentrations of 1-3 nM). Protein concentrations were adjusted to provide linear product formation for at least 30 min of incubation. After incubation at 30° for 30 min, the reaction was quenched by addition of 50 μl of 200 mM EDTA (pH 8.0) and 2 mg/ml SA-PVT SPA beads (Amersham, RPNQ0009, reconstituted in 20 mM Tris-HCl, pH 8.0, 100 mM EDTA and 1% BSA). The beads were left to settle overnight and the SPA signals were counted in a 96-well top counter-NXT (Packard). IC50 values were obtained by sigmoidal regression analysis using GraphPad Prism 3.0 (GraphPad Software, Inc.).

[2] = system: wild-type laboratory strain HIV-1HXB2; assay: Recombinant HIV-1 Antiviral Assay (MTT cell viability assay with MT-4 cells); type: cell-based; settings: Human immunodeficiency virus 1, MT4, 120 h; for pIC50: MT-4 cells infected with HIV-1HXB2, MTT readout after 5 days, read-out: Antiviral Activity IC50
Procedure: Recombinant HIV-1 Antiviral Assay
The sensitivity of a wild-type laboratory strain HIV-1HXB2 to described compounds was determined by the 3-[4,5-dimethylthiazol-2yl]-2,5-diphenyltetrazolium bromide (MTT) cell viability assay with MT-4 cells (R. Pauwels et al., “Rapid and automated tetrazolium-based colorimetric assay for the detection of anti-HIV compounds,” J. Virological Methods 1988 20:309-321). Briefly, MT-4 cells were incubated with virus (MOI 0.0001) for 1 h at 37° C. and then resuspended at 7.5×10^5/mL in RPMI 1640 (with out phenol) (Gibco) with 10% FCS and antibiotics and plated out onto a 96 well plate (Corning Costar, USA). After 5 days incubation 20 μL of MTT (Sigma-Aldrich) (5 mg/mL in PBS) was added and the plates were incubated for 2 h before the addition of 170 μL of acidified IPA. The absorbance was measured at 540 nm and the TCID50 determined by Spearman-Karber method.

[3] = SPA polymerase assay, 30 min at 30°, read-out: HIVRT inhibition IC50

Row | SMILES | pIC50 [1] | pIC50 [2] | pIC50 [1, 3] | other results
1 | Cc1cc(C#N)cc(Cl)c1Oc1nc(NC2CCN(c3cccc(C(N)=O)c3)CC2)ncc1Br [IV-13] | 7.55 | 8.24 | – | –
2 | Cc1cc(C#N)cc(C)c1Nc1nc(NC2CCN(c3cccc(C#N)c3)CC2)ncc1Br [V-3] | – | – | 7.40 | –
3 | Cc1cc(C#N)cc(C)c1Nc1nc(NC2CCN(c3cccc(C(N)=O)c3)CC2)ncc1Br [V-5] | 7.55 | 8.82 | – | –
4 | Cc1cc(C#N)cc(C)c1Oc1ccnc(NC2CCN(Cc3ccccc3)CC2)n1 [I-1, 4-[2-(1-Benzyl-piperidin-4-ylamino)-pyrimidin-4-yloxy]-3,5-dimethyl-benzonitrile] | – | – | – | melting point: 162 to 163.3 °C
5 | Cc1cc(C#N)cc(C)c1Oc1nc(NC2CCN(Cc3ccccc3)CC2)ncc1Br [I-2, 4-[2-(1-Benzyl-piperidin-4-ylamino)-5-bromo-pyrimidin-4-yloxy]-3,5-dimethyl-benzonitrile] | – | – | – | melting point: 158 to 159.8 °C
6 | Cc1cc(C#N)cc(C)c1Oc1ccnc(NC2CCN(c3cc(Cl)cc(C#N)c3)CC2)n1 [IV-23] | – | – | 7.42 | –
7 | Cc1cc(C#N)cc(C)c1Oc1ccnc(NC2CCN(c3cccc(S(N)(=O)=O)c3)CC2)n1 [IV-3] | 7.83 | 9.40 | – | –
8 | Cc1cc(C#N)cc(C)c1Oc1nc(NC2CCN(Cc3ccc(S(N)(=O)=O)cc3Cl)CC2)nc(N)c1Br [II-1] | – | – | 6.98 | IC50 ([2]; read-out: Antiviral Activity IC50(μM)): 0.0086 µM
9 | Cc1cc(C#N)cc(C)c1Nc1ccnc(NC2CCN(Cc3ccc(S(C)(=O)=O)cc3Cl)CC2)n1 [III-1, 4-{2-[1-(2-Chloro-4-methanesulfonyl-benzyl)-piperidin-4-ylamino]-pyrimidin-4-ylamino}-3,5-dimethyl-benzonitrile] | 7.59 | 8.66 | – | –
10 | Cc1cc(C#N)cc(C)c1Oc1ccnc(NC2CCN(Cc3ccc(S(C)(=O)=O)cc3)CC2)n1 [I-3, 4-{2-[1-(4-Methanesulfonyl-benzyl)-piperidin-4-ylamino]-pyrimidin-4-yloxy}-3,5-dimethyl-benzonitrile] | 7.47 | 8.52 | – | –
